Values of other authors as cited in patent publication US20240377378A1, “TRACER METHODS FOR THE DETERMINATION OF SORBENT CONTENT IN SOILS” (Regenesis Bioremediation Products, priority 2023, published 2024).

Key:
[1] = under normal conditions (Congo Red: normal or ambient conditions)
[2] = 2012 OSHA Hazard Communication Standard
[3] = water

Chemical Stability [1] | Solubility [3] [g/L] | Hazard Identification: criteria for hazardous classification [2] | Solubility (in words) [3] | SMILES | carcinogenicity hazard category [2] | reproductive toxicity hazard category [2] | pKa | Serious eye damage/eye irritation hazard category [2] | acute oral toxicity hazard category [2]
Stable under | 25 to 116 |  |  | Nc1c(/N=N/c2ccc(-c3ccc(/N=N/c4cc(S(=O)(=O)O)c5ccccc5c4N)cc3)cc2)cc(S(=O)(=O)O)c2ccccc12 [Congo Red] | (Category 1B), | (Category 2) |  |  | 
Stable under | 50 to 100 | Does not meet | soluble in water | O=S(=O)(O)c1cc(S(=O)(=O)O)c2c(/N=N/c3ccccc3)c(O)ccc2c1 [Orange G] |  |  | 11.5 |  | 

SMILES | Chemical Stability [1] | Solubility [3] [g/L] | Hazard Identification: criteria for hazardous classification [2] | Solubility (in words) [3] | carcinogenicity hazard category [2] | reproductive toxicity hazard category [2] | pKa | Serious eye damage/eye irritation hazard category [2] | acute oral toxicity hazard category [2]
CCN(CC)c1ccc2c(-c3ccccc3C(=O)O)c3ccc(=[N+](CC)CC)cc-3oc2c1.[Cl-] [Rhodamine B] | Stable under |  |  |  |  |  | 3.1-3.22 | (Category 1) | (Category 4),
